Molecular target: T1, CsOxOx (Ceriporiopsis subvermispora bicupin oxalate oxidase, isoform-G) (Gelatoporia subvermispora, UniProt Q5ZH56)
T1 sequence (Q5ZH56 21-461): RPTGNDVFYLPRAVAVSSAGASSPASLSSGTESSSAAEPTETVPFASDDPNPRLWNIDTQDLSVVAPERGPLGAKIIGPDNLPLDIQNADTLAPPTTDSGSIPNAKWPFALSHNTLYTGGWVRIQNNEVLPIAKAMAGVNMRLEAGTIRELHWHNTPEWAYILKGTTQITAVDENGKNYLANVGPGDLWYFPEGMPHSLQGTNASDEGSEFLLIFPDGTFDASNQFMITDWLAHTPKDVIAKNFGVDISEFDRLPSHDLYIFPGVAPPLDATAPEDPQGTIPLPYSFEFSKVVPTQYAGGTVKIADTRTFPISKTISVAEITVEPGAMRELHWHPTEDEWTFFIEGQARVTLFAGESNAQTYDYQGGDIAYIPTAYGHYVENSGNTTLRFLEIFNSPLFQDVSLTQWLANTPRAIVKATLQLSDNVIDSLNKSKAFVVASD
Test: continuous coupled HRP/ABTS assay of H2O2 production, […] nm
Type: biochemical

Row | Structure (SMILES) | Ki [mM]
1 | CC(=O)O [acetate] | 3.9 ± 0.6
2 | O=C(O)CO [glycolate] | 28 ± 5
3 | O=CC(=O)O [glyoxylate] | 15 ± 3
4 | O=C(O)C[C@H](O)C(=O)O [malate] | 52 ± 6
5 | O=C(O)CC(=O)O [malonate] | 3 ± 0.3
6 | CC(=O)C(=O)O [pyruvate] | 17 ± 3
